# Experimental data: patent US12194095B2, “Combinations and uses thereof” (Incyte Corporation, priority 2015, dated 2025)
# Entries after “also recorded” stand apart in the source; their conditions may differ.
# B1: MOR00208: anti-CD19 antibody; variable domains in FIG. 1, Fc regions in FIG. 2 (antibody)
# heavy: EVQLVESGGGLVKPGGSLKLSCAASGYTFTSYVMHWVRQAPGKGLEWIGYINPYNDGTKYNEKFQGRVTISSDKSISTAYMELSSLRSEDTAMYYCARGTYYYGTRVFDYWGQGTLVTVSSASTKGPSVFPLAPSSKSTSGGTAALGCLVKDYFPEPVTVSWNSGALTSGVHTFPAVLQSSGLYSLSSVVTVPSSSLGTQTYICNVNHKPSNTKVDKKVEPKSCDKTHTCPPCPAPELLGGPDVFLFPPKPKDTLMISRTPEVTCVVVDVSHEDPEVQFNWYVDGVEVHNAKTKPREEQFNSTFRVVSVLTVVHQDWLNGKEYKCKVSNKALPAPEEKTISKTKGQPREPQVYTLPPSREEMTKNQVSLTCLVKGFYPSDIAVEWESNGQPENNYKTTPPMLDSDGSFFLYSKLTVDKSRWQQGNVFSCSVMHEALHNHYTQKSLSLSPGK
# light: DIVMTQSPATLSLSPGERATLSCRSSKSLQNVNGNTYLYWFQQKPGQSPQLLIYRMSNLNSGVPDRFSGSGSGTEFTLTISSLEPEDFAVYYCMQHLEYPITFGAGTKLEIKRTVAAPSVFIFPPSDEQLKSGTASVVCLLNNFYPREAKVQWKVDNALQSGNSQESVTEQDSKDSTYSLSSTLTLSKADYEKHKVYACEVTHQGLSSPVTKSFNRGEC
# Tested on: MEC-1 cells
# Experiment: ADCC cytotoxicity (target cell killing) of MEC-1 cells with NK cells, MOR00208 and Idelalisib alone and in combination
# Format: cell-based, human
# Experimental: The cytotoxicity of MOR00208 and Idelalisib alone and in combination were tested in the MEC-1 cell line.
# Idelalisib is a phosphoinositide 3-kinase inhibitor; more specifically, it blocks P110δ, the delta isoform of the enzyme phosphoinositide 3-kinase. […] MOR00208 targets CD19 and mediates target cell killing via ADCC.
# The following were used as controls: a) MEC-1 cells+RefmAb33+DMSO+NK cells, b) MEC-1 cells+DMSO+NK cells, c) MEC-1 cells+DMSO.
# Target cell killing was measured using the following parameters: Idelalisib at concentrations of 0.3, 1, 3 and 10 μM; MOR00208 at concentrations of 1.5, 0.015 and 0.0015 μg/ml and the combination of MOR00208 and Idelalisib at the same concentrations.
# In the Idelalisib group, […] in the MOR00208+Idelalisib combination group, target cells were pre-treated with Idelalisib for 7 days prior to the ADCC assay measurements. The target cells were counted and stained using 10 μM CFSE end concentration. For DMSO treated target cells, an effector:target (E:T) ratio of 2:1 is chosen, corresponding to a cell density of 5×10^5/ml. The proliferative effect on target cells caused by Idelalisib treatment was included by adjusting the E:T ratio in inhibitor treated cells. The NK cells are counted and adjusted to 1×10^6/ml. The target cell killing assays were performed as follows: using 96 well plates, 100 μl of target cell suspension was added per well, followed by 100 μl cell suspension of NK cells to each well resulting in an E:T ratio of 2:1. The antibodies were diluted in a range of 10-0.00001 nM (corresponding to 1.5-0.0000015 μg/ml) in medium. Cells were centrifuged and target:effector cell-pellets were re-suspended in 100 μl antibody-containing medium or the according control solution. The assay was incubated for 4 h in CO2-incubator at 37° C. After 10 min incubation on ice, 50 μl DAPI solution was added to each well (final concentration 1 μg/ml) and incubated on ice for 10 min. The cell killing measurements were performed with FACS-Verse. Dead target cells were DAPI positive.
# In total, six experiments were performed in order to determine the mediation of ADCC on MEC-1 cells by the combination of MOR00208 and Idelalisib. […] The autoreactivity of the NK cells prevented a proper analysis in those two experiments.
# The % dead cells (raw data) from Tables 1-16 was analysed in the following way:
# [formula] [formula] [formula] where A is the treatment with MOR00208 alone; B is the treatment with Idelalisib alone; C is response to the control DMSO+RefMab33; AB is the combination of treatments A and B.
# In order to confirm the results of synergy as calculated using Clarke et al. above, the Combination Index (CI) method was applied to the % dead cells (raw data) of Tables 1-16. For CI calculations, we used 0.3, 1, 3 and 10 μM Idelalisib and three MOR208 concentrations (1.5, 0.015 and 0.0015 μg/ml).
# [1] = Experiment 1, Idelalisib 0.3 μM, MOR00208 0.01 nM (0.0015 μg/ml)
# [2] = Experiment 1, Idelalisib 0.3 μM, MOR00208 0.1 nM (0.015 μg/ml)
# [3] = Experiment 1, Idelalisib 0.3 μM, MOR00208 10 nM (1.5 μg/ml)
# [4] = Experiment 1, Idelalisib 1 μM, MOR00208 0.01 nM (0.0015 μg/ml)
# [5] = Experiment 1, Idelalisib 1 μM, MOR00208 0.1 nM (0.015 μg/ml)
# [6] = Experiment 1, Idelalisib 1 μM, MOR00208 10 nM (1.5 μg/ml)
# [7] = Experiment 1, Idelalisib 3 μM, MOR00208 0.01 nM (0.0015 μg/ml)
# [8] = Experiment 1, Idelalisib 3 μM, MOR00208 0.1 nM (0.015 μg/ml)
# [9] = Experiment 1, Idelalisib 3 μM, MOR00208 10 nM (1.5 μg/ml)
# [10] = Experiment 1, Idelalisib 10 μM, MOR00208 0.01 nM (0.0015 μg/ml)
# [11] = Experiment 1, Idelalisib 10 μM, MOR00208 0.1 nM (0.015 μg/ml)
# [12] = Experiment 1, Idelalisib 10 μM, MOR00208 10 nM (1.5 μg/ml)
# [13] = Experiment 2, Idelalisib 0.3 μM, MOR00208 0.01 nM (0.0015 μg/ml)
# [14] = Experiment 2, Idelalisib 0.3 μM, MOR00208 0.1 nM (0.015 μg/ml)
# [15] = Experiment 2, Idelalisib 0.3 μM, MOR00208 10 nM (1.5 μg/ml)
# [16] = Experiment 2, Idelalisib 1 μM, MOR00208 0.01 nM (0.0015 μg/ml)
# [17] = Experiment 2, Idelalisib 1 μM, MOR00208 01 nM (0.015 μg/ml)
# [18] = Experiment 2, Idelalisib 1 μM, MOR00208 10 nM (1.5 μg/ml)
# [19] = Experiment 2, Idelalisib 3 μM, MOR00208 0.01 nM (0.0015 μg/ml)
# [20] = Experiment 2, Idelalisib 3 μM, MOR00208 0.1 nM (0.015 μg/ml)
# [21] = Experiment 2, Idelalisib 3 μM, MOR00208 10 nM (1.5 μg/ml)
# [22] = Experiment 2, Idelalisib 10 μM, MOR00208 0.01 nM (0.0015 μg/ml)
# [23] = Experiment 2, Idelalisib 10 μM, MOR00208 0.1 nM (0.015 μg/ml)
# [24] = Experiment 2, Idelalisib 10 μM, MOR00208 10 nM (1.5 μg/ml)
# [25] = Experiment 3, Idelalisib 0.3 μM, MOR00208 0.01 nM (0.0015 μg/ml)
# [26] = Experiment 3, Idelalisib 0.3 μM, MOR00208 0.1 nM (0.015 μg/ml)
# [27] = Experiment 3, Idelalisib 0.3 μM, MOR00208 10 nM (1.5 μg/ml)
# [28] = Experiment 3, Idelalisib 1 μM, MOR00208 0.01 nM (0.0015 μg/ml)
# [29] = Experiment 3, Idelalisib 1 μM, MOR00208 0.1 nM (0.015 μg/ml)
# [30] = Experiment 3, Idelalisib 1 μM, MOR00208 10 nM (1.5 μg/ml)
# [31] = Experiment 3, Idelalisib 3 μM, MOR00208 0.01 nM (0.0015 μg/ml)
# [32] = Experiment 3, Idelalisib 3 μM, MOR00208 0.1 nM (0.015 μg/ml)
# [33] = Experiment 3, Idelalisib 3 μM, MOR00208 10 nM (1.5 μg/ml)
# [34] = Experiment 3, Idelalisib 10 μM, MOR00208 0.01 nM (0.0015 μg/ml)
# [35] = Experiment 3, Idelalisib 10 μM, MOR00208 0.1 nM (0.015 μg/ml)
# [36] = Experiment 3, Idelalisib 10 μM, MOR00208 10 nM (1.5 μg/ml)
# [37] = Experiment 4, Idelalisib 0.3 μM, MOR00208 0.01 nM (0.0015 μg/ml)
# [38] = Experiment 4, Idelalisib 0.3 μM, MOR00208 0.1 nM (0.015 μg/ml)
# [39] = Experiment 4, Idelalisib 0.3 μM, MOR00208 10 nM (1.5 μg/ml)
# [40] = Experiment 4, Idelalisib 1 μM, MOR00208 0.01 nM (0.0015 μg/ml)
# [41] = Experiment 4, Idelalisib 1 μM, MOR00208 0.1 nM (0.015 μg/ml)
# [42] = Experiment 4, Idelalisib 1 μM, MOR00208 10 nM (1.5 μg/ml)
# [43] = Experiment 4, Idelalisib 3 μM, MOR00208 0.01 nM (0.0015 μg/ml)
# [44] = Experiment 4, Idelalisib 3 μM, MOR00208 0.1 nM (0.015 μg/ml)
# [45] = Experiment 4, Idelalisib 3 μM, MOR00208 10 nM (1.5 μg/ml)
# [46] = Experiment 4, Idelalisib 10 μM, MOR00208 0.01 nM (0.0015 μg/ml)
# [47] = Experiment 4, Idelalisib 10 μM, MOR00208 0.1 nM (0.015 μg/ml)
# [48] = Experiment 4, Idelalisib 10 μM, MOR00208 10 nM (1.5 μg/ml)
molecule,measurement,setting,value
CC[C@H](Nc1ncnc2nc[nH]c12)c1nc2cccc(F)c2c(=O)n1-c1ccccc1 [Idelalisib],effect of the Idelalisib group greater than the control,"Experiment 1, Tables 1-3",~4%
same,% dead cells,[1],6.8%
same,% dead cells,[2],6.8%
same,% dead cells,[3],6.8%
same,% dead cells,[4],10.8%
same,% dead cells,[5],10.8%
same,% dead cells,[6],10.8%
same,% dead cells,[7],11.3%
same,% dead cells,[8],11.3%
same,% dead cells,[9],11.3%
same,% dead cells,[10],11.6%
same,% dead cells,[11],11.6%
same,% dead cells,[12],11.6%
same,% dead cells,[13],20.8%
same,% dead cells,[14],20.8%
same,% dead cells,[15],20.8%
same,% dead cells,[16],20.7%
same,% dead cells,[17],20.7%
same,% dead cells,[18],20.7%
same,% dead cells,[19],14.6%
same,% dead cells,[20],14.6%
same,% dead cells,[21],14.6%
same,% dead cells,[22],14.7%
same,% dead cells,[23],14.7%
same,% dead cells,[24],14.7%
same,% dead cells,[25],17.3%
same,% dead cells,[26],17.3%
same,% dead cells,[27],17.3%
same,% dead cells,[28],18.7%
same,% dead cells,[29],18.7%
same,% dead cells,[30],18.7%
same,% dead cells,[31],14.0%
same,% dead cells,[32],14.0%
same,% dead cells,[33],14.0%
same,% dead cells,[34],11.5%
same,% dead cells,[35],11.5%
same,% dead cells,[36],11.5%
same,% dead cells,[37],15.5%
same,% dead cells,[38],15.5%
same,% dead cells,[39],15.5%
same,% dead cells,[40],15.9%
same,% dead cells,[41],15.9%
same,% dead cells,[42],15.9%
same,% dead cells,[43],13.8%
same,% dead cells,[44],13.8%
same,% dead cells,[45],13.8%
same,% dead cells,[46],12.1%
same,% dead cells,[47],12.1%
same,% dead cells,[48],12.1%
same,cytotoxic effects against MEC-1 cells,Idelalisib alone,little to no cyctotoxic effects; also recorded: low cytotoxity activity
B1,% dead cells,[1],40.3%
same,% dead cells,[2],63.1%
same,% dead cells,[3],62.9%
same,% dead cells,[4],40.3%
same,% dead cells,[5],63.1%
same,% dead cells,[6],62.9%
same,% dead cells,[7],40.3%
same,% dead cells,[8],63.1%
same,% dead cells,[9],62.9%
same,% dead cells,[10],40.3%
same,% dead cells,[11],63.1%
same,% dead cells,[12],62.9%
same,% dead cells,[13],52.9%
same,% dead cells,[14],78.9%
same,% dead cells,[15],85.6%
same,% dead cells,[16],52.9%
same,% dead cells,[17],78.9%
same,% dead cells,[18],85.6%
same,% dead cells,[19],52.9%
same,% dead cells,[20],78.9%
same,% dead cells,[21],85.6%
same,% dead cells,[22],52.9%
same,% dead cells,[23],78.9%
same,% dead cells,[24],85.6%
same,% dead cells,[25],43.5%
same,% dead cells,[26],59.5%
same,% dead cells,[27],62.0%
same,% dead cells,[28],43.5%
same,% dead cells,[29],59.5%
same,% dead cells,[30],62.0%
same,% dead cells,[31],43.5%
same,% dead cells,[32],59.5%
same,% dead cells,[33],62.0%
same,% dead cells,[34],43.5%
same,% dead cells,[35],59.5%
same,% dead cells,[36],62.0%
same,% dead cells,[37],56.3%
same,% dead cells,[38],73.3%
same,% dead cells,[39],74.6%
same,% dead cells,[40],56.3%
same,% dead cells,[41],73.3%
same,% dead cells,[42],74.6%
same,% dead cells,[43],56.3%
same,% dead cells,[44],73.3%
same,% dead cells,[45],74.6%
same,% dead cells,[46],56.3%
same,% dead cells,[47],73.3%
same,% dead cells,[48],74.6%
